Measured values published in patent US9469615B2, “Quinoxalines and AZA-quinoxalines as CRTH2 receptor modulators” (Merck Sharp & Dohme Corp., priority 2010, dated 2016).
pKi: −log10 of the molar value.

These compounds were tested against T1, hCRTH2 (Homo sapiens, UniProt Q9Y5Y4) (assay: Radioligand binding assay ([3H]PGD2 competition, HEK-hCRTH2 membranes)). Conditions: [3H]PGD2 binding, rated A-E (Table A).
T1 construct: expressed in transfected cells; host or cells: HEK (human embryonic kidney) cells expressing hCRTH2; membrane preparation
T1 sequence (Q9Y5Y4 1-395): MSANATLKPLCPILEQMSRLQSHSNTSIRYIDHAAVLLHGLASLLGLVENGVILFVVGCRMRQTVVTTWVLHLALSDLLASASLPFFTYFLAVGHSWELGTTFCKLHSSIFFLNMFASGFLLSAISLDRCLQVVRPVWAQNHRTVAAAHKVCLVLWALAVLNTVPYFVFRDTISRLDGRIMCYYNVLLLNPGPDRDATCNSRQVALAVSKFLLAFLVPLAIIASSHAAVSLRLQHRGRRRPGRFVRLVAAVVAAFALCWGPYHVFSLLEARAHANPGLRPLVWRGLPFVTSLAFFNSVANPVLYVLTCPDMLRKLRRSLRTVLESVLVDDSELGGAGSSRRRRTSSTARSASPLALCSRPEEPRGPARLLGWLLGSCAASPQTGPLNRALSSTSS
Outline: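 Membranes (8-20 μg protein) from HEK-hCRTH2 cells were incubated 60 min at room temperature with 3.0 nM [3H]PGD2 in 50 mM Tris-HCl pH 7.4, 1 mM EDTA, 2 mM MnCl2, 1% DMSO. Non-specific binding defined with 10 μM PGD2. Bound radioactivity counted after filtration.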

| pKi | Compound |
| --- | --- |
| 6.15 to 6.70 | O=C(O)Cc1ccc(CCc2nc3cc(C(=O)N4CCC(c5ccccc5)CC4)ccc3nc2-c2ccc(Cl)cc2)cc1 [compound 158, 4-[2-[3-(4-chlorophenyl)-7-[(4-phenyl-1-piperidinyl)carbonyl]-2-quinoxalinyl]ethyl] benzeneacetic acid] |
| 7.70 to 8.68 | CC(CCCc1nc2cc(C(=O)N[C@@H](C)c3ccc(F)cc3)ccc2nc1-c1ccc(F)cc1)C(=O)O (stereo partly drawn) [compound 210, 3-(4-fluorophenyl)-7-[[[1(S)-(4-fluorophenyl)ethyl]amino]carbonyl]-alpha-methyl-2-quinoxalinepentanoic acid] |
| 7.70 to 8.68 | C[C@@H](c1ccc(Cl)cc1)N(C)C(=O)c1ccc2nc(-c3ccc(F)cc3)c(CCCCC(=O)O)nc2c1 [compound 243, 7-[[[1(S)-(4-chlorophenyl)ethyl]methylamino]carbonyl]-3-(4-fluorophenyl)-2-quinoxalinepentanoic acid] |
| 8.70 to 10.00 | O=C(O)CCCCc1nc2cc(C(=O)N3CCC[C@H](c4ccccc4)C3)ccc2nc1-c1ccc(Cl)cc1 [16N, 3-(4-chlorophenyl)-7-[(3(R)-phenyl-1-piperidinyl)carbonyl]-2-quinoxalinepentanoic acid] |
| 7.70 to 8.68 | CC(=O)N1CC2(CCN(C(=O)c3ccc4nc(-c5ccccc5)c(CCCCC(=O)O)nc4c3)CC2)c2ccccc21 [compound 123, 7-[(1-acetyl-1,2-dihydrospiro[3H-indole-3,4′-piperidin]-1′-yl)carbonyl]-3-phenyl-2-quinoxalinepentanoic acid] |
| 7.70 to 8.68 | CC(CCc1nc2cc(C(=O)N[C@@H](c3ccccc3)C(F)(F)F)ccc2nc1-c1ccc(Cl)cc1)CC(=O)O (stereo partly drawn) [17M, 3-(4-chlorophenyl)-beta-methyl-7-[[[2,2,2-trifluoro-(1S)-phenylethyl]amino]carbonyl]-2-quinoxaline pentanoic acid] |
| 8.70 to 10.00 | C[C@@H](NC(=O)c1ccc2nc(-c3ccc(Cl)cc3)c(CCCCC(=O)O)nc2c1)c1ccccc1 [16AL, 3-(4-chlorophenyl)-7-[[(1(R)-phenylethyl)amino]carbonyl]-2-quinoxalinepentanoic acid] |
| 7.70 to 8.68 | N#Cc1ccc(CNC(=O)c2ccc3nc(-c4ccc(C(F)(F)F)cc4)c(CCCCC(=O)O)nc3c2)cc1 [compound 157, 7-[[[(4-cyanophenyl)methyl]amino]carbonyl]-3-[4-(trifluoromethyl)phenyl]-2-quinoxalinepentanoic acid] |
| 8.70 to 10.00 | O=C(O)CCCCc1nc2cc(C(=O)N3CCN(c4ccccc4)CC3)ccc2nc1-c1ccc(C(F)(F)F)cc1 [3Y, 7-[(4-phenyl-1-piperazinyl)carbonyl]-3-[4-(trifluoromethyl)phenyl]-2-quinoxalinepentanoic acid] |
| 6.70 to 7.70 | C[C@H](NC(=O)c1cnc2nc(-c3ccccc3)c(CCCCC(=O)O)nc2c1)c1ccccc1 [14C, 5-(3-phenyl-7-{[(1S)-1-phenylethyl]carbamoyl}pyrido[2,3-b]pyrazin-2-yl)pentanoic acid] |
| 6.70 to 7.70 | O=C(O)Cc1cccc(CCc2nc3cc(C(=O)N[C@@H](c4ccccc4)C(F)(F)F)ccc3nc2-c2ccc(Cl)cc2)c1 [19J, 3-[2-[3-(4-chlorophenyl)-7-[[(2,2,2-trifluoro-1(S)-phenylethyl)amino]carbonyl]-2-quinoxalinyl]ethyl]benzeneacetic acid] |
| 7.70 to 8.68 | CS(=O)(=O)N1CC2(CCN(C(=O)c3ccc4nc(-c5ccccc5)c(CCCCC(=O)O)nc4c3)CC2)c2ccccc21 [compound 118, 7-[[1,2-dihydro-1-(methylsulfonyl)spiro[3H-indole-3,4′-piperidin]-1′-yl]carbonyl]-3-phenyl-2-quinoxalinepentanoic acid] |
| 6.70 to 7.70 | O=C(O)CCCc1nc2cc(C(=O)NCc3cccc(Cl)c3)ccc2nc1-c1ccccc1 [compound 23, 7-[[[(3-chlorophenyl)methyl]amino]carbonyl]-3-phenyl-2-quinoxalinebutanoic acid] |
| 7.70 to 8.68 | CC(CCc1nc2cc(C(=O)N[C@H](c3ccc(F)cc3)C(F)(F)F)ccc2nc1-c1ccc(Cl)cc1)CC(=O)O (stereo partly drawn) [17G] |

Same assay, conditions: [3H]PGD2 competition, Table B

| pKi | Compound |
| --- | --- |
| 7.70 to 8.68 | O=C(O)CCCCc1nc2cc(C(=O)N3CCC3c3ccccc3)ccc2nc1-c1ccc(Cl)cc1 (stereo not drawn) [compound 648, 5-(3-(4-chlorophenyl)-7-(2-phenylazetidine-1-carbonyl)quinoxalin-2-yl)pentanoic acid] |
| 7.70 to 8.68 | CC(CCCc1nc2cc(C(=O)N[C@@H]3CCCc4ccccc43)ccc2nc1-c1ccccc1)C(=O)O (stereo partly drawn) [compound 453, 2-methyl-5-(3-phenyl-7-(((R)-1-yl)carbamoyl)quinoxalin-2-yl)pentanoic acid] |
| 7.70 to 8.68 | C[C@H]1CN(c2ccc(Cl)cc2)CCN1C(=O)c1ccc2nc(-c3ccccc3)c(CCCCC(=O)O)nc2c1 [compound 551, (S)-5-(7-(4-(4-chlorophenyl)-2-methylpiperazine-1-carbonyl)-3-phenyl-quinoxalin-2-yl)pentanoic acid] |
| 8.70 to 10.00 | O=C(O)CCCCc1nc2cc(C(=O)N[C@@H]3CCCc4ccccc43)ccc2nc1-c1ccccc1 [compound 256, (R)-5-(3-phenyl-7-((1,2,3,4-tetrahydronaphthalen-1-yl)carbamoyl)quinoxalin-2-yl)pentanoic acid] |
| 7.70 to 8.68 | C[C@@H](CCCc1nc2cc(C(=O)N[C@@H]3CCCc4cc(F)ccc43)ccc2nc1-c1ccc(F)cc1)C(=O)O [compound 518, (S)-5-(7-(((R)-6-fluoro-1,2,3,4-tetrahydronaphthalen-1-yl)carbamoyl)-3-(4-fluorophenyl)quinoxalin-2-yl)-2-methylpentanoic acid] |
| 6.70 to 7.70 | C[C@@H](NC(=O)c1ccc2nc(-c3ccc(F)c(F)c3)c(CCCCC(=O)O)nc2c1)c1ccc(F)cc1 [compound 411] |
| 7.70 to 8.68 | CN1C(=O)c2ccccc2C12CCN(C(=O)c1ccc3nc(-c4ccc(Cl)cc4)c(CCCCC(=O)O)nc3c1)CC2 [compound 695, 5-(3-(4-chlorophenyl)-7-(2-methyl-3-oxospiro[isoindoline-1,4′-piperidin]-1′-ylcarbonyl)quinoxalin-2-yl)pentanoic acid] |
| 5.64 to 6.15 | C[C@H](CCc1nc2cc(C(=O)N3CCN(c4ccccc4)CC3)ccc2nc1-c1ccccc1)CC(=O)O [compound 280, (R)-3-methyl-5-(3-phenyl-7-(4-phenylpiperazine-1-carbonyl)quinoxalin-2-yl)pentanoic acid] |
| 7.70 to 8.68 | CN(Cc1cccnc1)C(=O)c1ccc2nc(-c3ccc(Cl)cc3)c(CCCCC(=O)O)nc2c1 [compound 625, 5-(3-(4-chlorophenyl)-7-(methyl(pyridin-3-ylmethyl)carbamoyl)quinoxalin-2-yl)pentanoic acid] |
| 6.70 to 7.70 | Cc1nnc(CNC(=O)c2ccc3nc(-c4ccc(F)cc4)c(CCCCC(=O)O)nc3c2)o1 [compound 525, 5-(3-(4-fluorophenyl)-7-(((5-methyl-1,3,4-oxadiazol-2-yl)methyl)carbamoyl)quinoxalin-2-yl) pentanoic acid] |
| 7.70 to 8.68 | C[C@H](CCCc1nc2cc(C(=O)N[C@@H]3CCCc4ccccc43)ccc2nc1-c1ccc(F)cc1)C(=O)O [compound 477, (R)-5-(3-(4-fluorophenyl)-7-(((R)-1,2,3,4-tetrahydronaphthalen-1-yl)carbamoyl)quinoxalin-2-yl)-2-methylpentanoic acid] |
| 7.70 to 8.68 | C[C@@H](NC(=O)c1ccc2nc(-c3ccc(Cl)cc3)c(CCc3cc(F)cc(CC(=O)O)c3)nc2c1)c1ccc(F)cc1 [compound 449] |

| Compound | pKi |
| --- | --- |
| O=C(O)CCCCc1nc2cc(C(=O)N3C[C@@H]4C[C@H]3CN4Cc3ccccc3)ccc2nc1-c1ccc(Cl)cc1 [compound 630] | 7.70 to 8.68 |
